Measured values taken from article PMC3958311 (EMBO Molecular Medicine, 2014).
Values after ≈ are worked out from the molar mass of the structure shown. Read-outs that look alike come from different tables or passages of the source.

Legend:
M. marinum strain M [1] = type: in vivo, zebrafish (Danio rerio); settings: 5 days treatment
M. vaccae ATCC 15483 = experiment: MIC99 by REMA; type: cell-based; settings: Mycolicibacterium vaccae, ATCC15483; M. vaccae ATCC 15483; read-out: MIC99
M. avium ATCC 15769 = experiment: MIC99 by REMA; type: cell-based; settings: Mycobacterium avium, ATCC15769; M. avium ATCC 15769; read-out: MIC99
M. smegmatis mc^2155 = experiment: MIC99 by REMA; type: cell-based, Mycobacterium smegmatis; settings: Mycolicibacterium smegmatis; M. smegmatis mc^2155; read-out: MIC99
in vitro [2] = settings: mouse, microsomes
M. bovis BCG Pasteur = experiment: microbe, parasite or virus in culture; type: cell-based, Mycobacterium bovis BCG; settings: Mycobacterium tuberculosis variant bovis BCG, BCG
[3] = human
M. abscessus 2005-0524 = experiment: MIC99 by REMA; type: cell-based; settings: Mycobacteroides abscessus, 20050524; M. abscessus 2005-0524; read-out: MIC99
M. tuberculosis DprE1 = M. tuberculosis DprE1 (Mycobacterium tuberculosis, UniProt P9WJF1); experiment: DprE1 inhibition, two step peroxidase-coupled assay with Amplex Red; type: biochemical; settings: 5 min incubation, 5 μM enzyme, 200 μM FPR
M. tuberculosis H37Rv [4] = type: in vivo, BALB/c mice
M. smegmatis GM22 = experiment: microbe, parasite or virus in culture; type: cell-based; settings: Mycolicibacterium smegmatis; for MIC99: M. smegmatis GM22, overproduces NfnB nitroreductase, read-out: MIC99
M. bovis BCG BN2 = type: cell-based, Mycobacterium bovis BCG
M. tuberculosis MDR_CHUV = experiment: MIC99 by REMA; type: cell-based, Mycobacterium tuberculosis; settings: Mycobacterium tuberculosis; read-out: MIC99
[5] = molecular target: T1, purified recombinant M. smegmatis NfnB (Mycolicibacterium smegmatis, UniProt A0R6D0); experiment: NfnB-mediated nitroreduction followed by LC-MS; type: biochemical
T1 construct: made in house

C. diphtheriae DSM 44123 = experiment: MIC99 by REMA; type: cell-based, Corynebacterium diphtheriae; settings: Corynebacterium diphtheriae, DSM44123; C. diphtheriae DSM 44123; read-out: MIC99
[6] = mouse
in vivo = experiment: in vivo
Method: Table S5. Principal pharmacokinetic properties1
1 See Figure S5 for primary data.
Compound levels were measured in serum from individual female mice (3/time point) that had received a single dose of 25 mg/kg. Maximum concentration (Cmax); area under the curve (AUC); apparent clearance.
Comparative pharmacokinetic analysis. After receiving a single dose
(25 mg/kg) of PBTZ169 or BTZ043 by gavage, groups of three female mice were sacrificed at the times indicated, blood was obtained by cardiac puncture and the drug levels in serum determined by LC-MS/MS technique (limit of quantification 10 μg/L).

M. tuberculosis H37Rv [7] = experiment: MIC by resazurin reduction microplate assay (REMA); type: cell-based, Mycobacterium tuberculosis; settings: Mycobacterium tuberculosis; for MIC99: read-out: MIC99
in vitro [8] = settings: human, microsomes
M. marinum Strain M [9] = experiment: MIC99 by REMA; type: cell-based, Mycobacterium marinum; settings: Mycobacterium marinum; M. marinum Strain M; read-out: MIC99
C. glutamicum ATCC 13032 = experiment: MIC99 by REMA; type: cell-based, Corynebacterium glutamicum; settings: Corynebacterium glutamicum, ATCC13032; C. glutamicum ATCC 13032; read-out: MIC99
M. massiliense 2005-0484 = experiment: MIC99 by REMA; type: cell-based; settings: Mycobacteroides abscessus, 20050484; M. massiliense 2005-0484; read-out: MIC99
M. bolletii 1999-0888 = experiment: MIC99 by REMA; type: cell-based; settings: Mycobacteroides abscessus, 19990888; M. bolletii 1999-0888; read-out: MIC99
zebrafish embryos = type: in vivo, zebrafish (Danio rerio)
Method: On examination of infected zebrafish embryos treated with BTZ043 it was observed that the compound affected embryo development (Fig 6A–G) especially at concentrations above 25 nM. […] These defects were also observed when uninfected embryos were exposed to BTZ043.
Figure 6 Effect of BTZ043 on M. marinum infected zebrafish embryo development. A–D M. marinum infected zebrafish embryos were treated with BTZ043 for 5 days at the concentrations indicated and photographed using a Leica DFC420C camera. The M strain was used for infection. E–F Images of the notochord from untreated and treated zebrafish, arrows indicate developmental abnormalities. G Analysis of zebrafish embryos displaying developmental abnormalities treated with BTZ043 (BTZ) or PBTZ169 (PBTZ) at the concentrations indicated.

[10] = test system: M. tuberculosis clinical isolate 6418; experiment: Drug susceptibility testing on solid Löwenstein-Jensen medium; type: cell-based; settings: Mycobacterium tuberculosis; […]; solid Löwenstein-Jensen medium; read-out: MIC
[11] = test system: M. tuberculosis clinical isolate 6341; experiment: as above; type: cell-based; settings: Mycobacterium tuberculosis; […]; solid Löwenstein-Jensen medium; read-out: MIC
[12] = test system: M. tuberculosis clinical isolate 5253; experiment: as above; type: cell-based; settings: Mycobacterium tuberculosis; […]; solid Löwenstein-Jensen medium; read-out: MIC
M. tuberculosis H37Rv [13] = experiment: as above; type: cell-based; settings: Mycobacterium tuberculosis; H37Rv, Sensitive; solid Löwenstein-Jensen medium, 21-28 days; read-out: MIC
[14] = test system: M. tuberculosis clinical isolate 6412; experiment: as above; type: cell-based; settings: Mycobacterium tuberculosis; […]; solid Löwenstein-Jensen medium; read-out: MIC
[15] = test system: M. tuberculosis clinical isolate 7384; experiment: as above; type: cell-based; settings: Mycobacterium tuberculosis; […]; solid Löwenstein-Jensen medium; read-out: MIC
[16] = test system: M. tuberculosis clinical isolate 5055; experiment: as above; type: cell-based; settings: Mycobacterium tuberculosis; […]; solid Löwenstein-Jensen medium; read-out: MIC
[17] = test system: M. tuberculosis clinical isolate 6374; experiment: as above; type: cell-based; settings: Mycobacterium tuberculosis; […]; solid Löwenstein-Jensen medium; read-out: MIC
[18] = test system: M. tuberculosis clinical isolate 4328; experiment: as above; type: cell-based; settings: Mycobacterium tuberculosis; […]; solid Löwenstein-Jensen medium; read-out: MIC
[19] = test system: M. tuberculosis clinical isolate 6448; experiment: as above; type: cell-based; settings: Mycobacterium tuberculosis; […]; solid Löwenstein-Jensen medium; read-out: MIC
[20] = female, mouse, in vivo, po, 25 mg/kg
[21] = Table 1, H37Rv, REMA, read-out: MIC M. tuberculosis
[22] = Table S1, M. tuberculosis H37Rv, read-out: MIC

T1 sequence (A0R6D0 whole entry): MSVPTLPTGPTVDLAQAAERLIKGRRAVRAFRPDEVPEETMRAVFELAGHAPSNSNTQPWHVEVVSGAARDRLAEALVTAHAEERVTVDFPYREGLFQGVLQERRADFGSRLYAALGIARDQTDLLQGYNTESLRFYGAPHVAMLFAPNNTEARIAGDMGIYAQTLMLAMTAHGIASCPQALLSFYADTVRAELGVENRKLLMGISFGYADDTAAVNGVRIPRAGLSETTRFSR
Chain of M. tuberculosis DprE1 (P9WJF1 whole entry, looked up): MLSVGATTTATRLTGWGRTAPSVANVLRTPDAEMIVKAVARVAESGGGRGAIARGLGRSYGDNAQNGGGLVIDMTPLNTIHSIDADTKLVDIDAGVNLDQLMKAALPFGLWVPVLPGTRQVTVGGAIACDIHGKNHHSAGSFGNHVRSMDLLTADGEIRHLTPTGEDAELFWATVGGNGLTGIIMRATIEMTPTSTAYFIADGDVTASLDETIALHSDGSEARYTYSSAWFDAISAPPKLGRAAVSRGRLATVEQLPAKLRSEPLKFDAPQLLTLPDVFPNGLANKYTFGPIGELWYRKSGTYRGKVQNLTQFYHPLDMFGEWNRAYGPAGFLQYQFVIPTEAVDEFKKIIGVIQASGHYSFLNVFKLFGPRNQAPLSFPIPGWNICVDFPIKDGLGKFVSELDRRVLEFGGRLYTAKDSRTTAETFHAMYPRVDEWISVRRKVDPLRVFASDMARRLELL

C[C@H]1COC2(CCN(c3nc(=O)c4cc(C(F)(F)F)cc([N+](=O)[O-])c4s3)CC2)O1 [BTZ043, 2-[(2S)-2-methyl-1,4-dioxa-8-azaspiro[4.5]dec-8-yl]-8-nitro-6-(trifluoromethyl)-4H-1,3-benzothia-zin-4-one]
TD50 (HepG2 human cell line; HepG2): 5 µg/mL
TD50 (HepG2 human cell line; HepG2, REMA, triplicate, toxic dose inhibiting 50% of the population): 5 µg/mL
TD99 (HepG2 human cell line; HepG2, REMA, triplicate, toxic dose inhibiting 99% of the population): 25 µg/mL
selectivity index (HepG2 human cell line; HepG2 cytotoxicity relative to MIC): > 10 000
effect on the infection in zebrafish embryos (M. marinum strain M [1]; 5 nM): no significant effect
bacterial burden in infected zebrafish embryos (fluorescence) (M. marinum strain M [1]; 25 or 50 nM): almost no bacteria were present
MIC99 (M. vaccae ATCC 15483): > 100 µg/mL
MIC99 (M. avium ATCC 15769): > 100 µg/mL
MIC99 (M. smegmatis mc^2155): 0.001 µg/mL (≈ 0.00232 µM)
microsomal CLint (in vitro [2]): 12.2 µL/min/mg
MIC99 (M. bovis BCG Pasteur): 0.001 µg/mL (≈ 0.00232 µM)
clearance on incubation with microsomes (in words) [3]: medium clearance values
MIC99 (M. abscessus 2005-0524): > 100 µg/mL
concentration giving full inhibition of DprE1 (M. tuberculosis DprE1): 20 µM
bacterial burden in the lungs lower than untreated control (M. tuberculosis H37Rv [4]; 50 mg/kg per day, 28 days): 0.6 logs
bacterial burden in the spleens lower than untreated control (M. tuberculosis H37Rv [4]; 50 mg/kg per day, 28 days): 1.7 logs
reduction of bacterial burden in the lungs and spleens (M. tuberculosis H37Rv [4]; dose escalation study, 50 mg/kg, four weeks): 1 log
MIC (M. smegmatis GM22; GM22, read-out: MIC for GM22): 0.05 µg/mL (≈ 0.116 µM)
MIC99 (M. smegmatis GM22): 0.031 µg/mL (≈ 0.0719 µM)
MIC99 (M. bovis BCG BN2): >100 µg/mL
fold increased resistance conferred by the Cys387Ser mutation in DprE1 (M. bovis BCG BN2): > 10 000 fold
MIC99 (M. tuberculosis MDR_CHUV): 0.002 µg/mL (≈ 0.00464 µM)
NfnB-mediated reduction, species found by LC-MS [5]: almost entirely converted to its hydroxylamino analogue
MIC99 (C. diphtheriae DSM 44123): 0.06 µg/mL (≈ 0.139 µM)
clearance on incubation with microsomes (in words) [6]: medium clearance values
Cmax (in vivo; [20]): 1920 ng/mL
half-life (in vivo; [20]): 1.67 h
k el (in vivo; [20]): 0.000116 s⁻¹
AUC (in vivo; serum, female mice, single dose 25 mg/kg by gavage, non-compartmental): 259829 µg·min/L
MIC99 (M. tuberculosis H37Rv [7]; M. tuberculosis H37Rv): 0.001 µg/mL (≈ 0.00232 µM)
microsomal CLint (in vitro [8]): 16 µL/min/mg
MIC99 (M. marinum Strain M [9]): 0.0007 µg/mL (≈ 0.00162 µM)
MIC99 (C. glutamicum ATCC 13032): 0.063 µg/mL (≈ 0.146 µM)
MIC99 (M. massiliense 2005-0484): > 100 µg/mL
MIC99 (M. bolletii 1999-0888): > 100 µg/mL
embryos affected (notochord defects, shortened Anterior-Posterior axis) (zebrafish embryos; 25 nM): 60.4%
embryos affected (notochord defects, shortened Anterior-Posterior axis) (zebrafish embryos; 50 nM): 76.7%

NC(=O)N1c2ccccc2C=Cc2ccccc21 [Carbamazepine]
microsomal CLint (in vitro [2]): 1.1 µL/min/mg
microsomal CLint (in vitro [8]): 0.5 µL/min/mg

NNC(=O)c1ccncc1 [INH, isoniazid]
MIC [10]: > 20 µg/mL
MIC [11]: > 20 µg/mL
MIC [12]: > 20 µg/mL
MIC (M. tuberculosis H37Rv [13]): 0.125 µg/mL (≈ 0.911 µM)
MIC [14]: > 20 µg/mL
MIC [15]: > 20 µg/mL
MIC [16]: > 20 µg/mL
MIC [17]: > 20 µg/mL
MIC [18]: 0.125 µg/mL (≈ 0.911 µM)
MIC [19]: > 20 µg/mL

O=c1nc(N2CCN(CCC3CCCCC3)CC2)sc2c([N+](=O)[O-])cc(C(F)(F)F)cc12 [PBTZ129]
MIC (M. tuberculosis H37Rv [7]; [21]): 0.00019 µg/mL (≈ 0.000404 µM)
MIC (M. tuberculosis H37Rv [7]; [22]): 0.00019 µg/mL (≈ 0.000404 µM)

CCCCCCCN1CCN(c2nc(=O)c3cc(C(F)(F)F)cc([N+](=O)[O-])c3s2)CC1 [PBTZ134]
reduction of bacterial burden in the spleens, fold more than BTZ043 (M. tuberculosis H37Rv [4]; 50 mg/kg per day, 28 days): 10 fold
NfnB-mediated reduction, species found by LC-MS [5]: as susceptible to NfnB-mediated reduction as BTZ043
MIC (M. tuberculosis H37Rv [7]; [21]): 0.00019 µg/mL (≈ 0.000414 µM)
MIC (M. tuberculosis H37Rv [7]; [22]): 0.00019 µg/mL (≈ 0.000414 µM)

O=c1nc(N2CCN(CCCCOc3ccccc3)CC2)sc2c([N+](=O)[O-])cc(C(F)(F)F)cc12 [PBTZ137]
MIC (M. tuberculosis H37Rv [7]; [21]): 0.0015 µg/mL (≈ 0.00295 µM)
MIC (M. tuberculosis H37Rv [7]; [22]): 0.0015 µg/mL (≈ 0.00295 µM)

O=c1nc(N2CCN(CCCCc3ccccc3)CC2)sc2c([N+](=O)[O-])cc(C(F)(F)F)cc12 [PBTZ139]
MIC (M. tuberculosis H37Rv [7]; [21]): 0.00037 µg/mL (≈ 0.000751 µM)
MIC (M. tuberculosis H37Rv [7]; [22]): 0.00037 µg/mL (≈ 0.000751 µM)

CO[C@H]1/C=C/O[C@@]2(C)Oc3c(C)c(O)c4c(O)c(c(/C=N/N5CCN(C)CC5)c(O)c4c3C2=O)NC(=O)/C(C)=C\C=C\[C@H](C)[C@H](O)[C@@H](C)[C@@H](O)[C@@H](C)[C@H](OC(C)=O)[C@@H]1C [RIF, rifampicin]
MIC99 (M. vaccae ATCC 15483): 100 µg/mL (≈ 122 µM)
MIC99 (M. avium ATCC 15769): 25 µg/mL (≈ 30.4 µM)
MIC99 (M. smegmatis mc^2155): 0.5 µg/mL (≈ 0.608 µM)
MIC99 (M. bovis BCG Pasteur): 0.001 µg/mL (≈ 0.00122 µM)
MIC99 (M. abscessus 2005-0524): 6.25 µg/mL (≈ 7.59 µM)
MIC99 (M. smegmatis GM22): 1 µg/mL (≈ 1.22 µM)
MIC99 (M. bovis BCG BN2): 0.0008 µg/mL (≈ 0.000972 µM)
MIC99 (M. tuberculosis MDR_CHUV): > 100 µg/mL
MIC99 (C. diphtheriae DSM 44123): 0.0008 µg/mL (≈ 0.000972 µM)
MIC99 (M. tuberculosis H37Rv [7]; M. tuberculosis H37Rv): 0.001 µg/mL (≈ 0.00122 µM)
MIC99 (M. marinum Strain M [9]): 0.39 µg/mL (≈ 0.474 µM)
MIC99 (C. glutamicum ATCC 13032): 0.004 µg/mL (≈ 0.00486 µM)
MIC99 (M. massiliense 2005-0484): 25 µg/mL (≈ 30.4 µM)
MIC99 (M. bolletii 1999-0888): 50 µg/mL (≈ 60.8 µM)
